ChEMBL document CHEMBL6121004, “Design, synthesis, and biological evaluation of Ponatinib-based N-Phenylpyrimidine-2-amine derivatives as novel fibroblast growth factor receptor 4 (FGFR4) selective inhibitors” (Eur J Med Chem, 2025)
Activity calls are given as the source filed them. No cut-off for these calls is given here.

How the values were obtained:
Huh-7 [1] = assay: Induction of apoptosis in human Huh-7 cells assessed as necrotic cells at 0.5 uM incubated for 48 hrs by annexin V-FITC/propidium iodide staining based flow cytometry analysis (reference value: 5.20%); type: functional
[2] = Toxicity in male nude mouse implanted with human Huh-7 cells assessed as spleen damage at 12.5 to 50 mg/kg, ip administered for 15 days; type: organism-based; conditions: in vivo, 360 h, dose 12.5-50 mg/kg, time 15 day
Hep 3B2 [3] = assay: Induction of apoptosis in human Hep3B cells assessed as necrotic cells at 1 uM incubated for 48 hrs by annexin V-FITC/propidium iodide staining based flow cytometry analysis (reference value: 5.20%); type: functional
Hep 3B2 [4] = assay: Induction of apoptosis in human Hep3B cells assessed as late apoptotic cells at 0.5 uM incubated for 48 hrs by annexin V-FITC/propidium iodide staining based flow cytometry analysis (reference value: 5.20%); type: functional
Hep 3B2 [5] = assay: Induction of apoptosis in human Hep3B cells assessed as late apoptotic cells at 0.25 uM incubated for 48 hrs by annexin V-FITC/propidium iodide staining based flow cytometry analysis (reference value: 5.20%); type: functional
Hep3B = assay: Inhibition of MAPK phosphorylation in human Hep3B cells incubated for 48 hrs by Western blot analysis; type: cell-based; conditions: dose 0.25-1 µM
Hep 3B2 [6] = assay: Induction of apoptosis in human Hep3B cells assessed as early apoptotic cells at 1 uM incubated for 48 hrs by annexin V-FITC/propidium iodide staining based flow cytometry analysis (reference value: 4.69%); type: functional
Hep 3B2 [7] = assay: Induction of apoptosis in human Hep3B cells assessed as early apoptotic cells at 0.5 uM incubated for 48 hrs by annexin V-FITC/propidium iodide staining based flow cytometry analysis (reference value: 4.69%); type: functional
Huh-7 [8] = assay: Induction of apoptosis in human Huh-7 cells assessed as late apoptotic cells at 0.1 uM incubated for 48 hrs by annexin V-FITC/propidium iodide staining based flow cytometry analysis (reference value: 5.20%); type: functional
Huh-7 [9] = assay: cells; conditions: Homo sapiens, Huh-7, 72 h
Description: Antiproliferative activity against human Huh-7 cells assessed as inhibition of cell proliferation incubated for 72 hrs by MTT assay

Hep 3B2 [10] = assay: Induction of apoptosis in human Hep3B cells assessed as viable cells at 0.5 uM incubated for 48 hrs by annexin V-FITC/propidium iodide staining based flow cytometry analysis (reference value: 84.91%); type: functional; conditions: read-out: Activity
Huh-7 [11] = assay: Induction of apoptosis in human Huh-7 cells assessed as early apoptotic cells at 0.1 uM incubated for 48 hrs by annexin V-FITC/propidium iodide staining based flow cytometry analysis (reference value: 4.59%); type: functional
[12] = Tmax in BALB/c male mouse at 10 mg/kg, po measured upto 24 hrs by LC-MS/MS analysis; type: ADME, organism-based; conditions: in vivo
Huh-7 [13] = assay: Induction of apoptosis in human Huh-7 cells assessed as late apoptotic cells at 1 uM incubated for 48 hrs by annexin V-FITC/propidium iodide staining based flow cytometry analysis (reference value: 5.20%); type: functional
Huh-7 [14] = assay: Induction of apoptosis in human Huh-7 cells assessed as viable cells at 0.5 uM incubated for 48 hrs by annexin V-FITC/propidium iodide staining based flow cytometry analysis (reference value: 84.91%); type: functional; conditions: read-out: Activity
[15] = Cmax in BALB/c male mouse at 10 mg/kg, po measured upto 24 hrs by LC-MS/MS analysis; type: ADME, organism-based; conditions: in vivo
Huh-7 [16] = assay: Antitumor activity against human Huh-7 cells xenografted in nude mouse assessed as tumor growth inhibition at 50 mg/kg, ip administered for 15 days; type: functional; conditions: Huh-7, 360 h, time 15 day, read-out: TGI
Hep 3B2 [17] = assay: Induction of apoptosis in human Hep3B cells assessed as viable cells at 1 uM incubated for 48 hrs by annexin V-FITC/propidium iodide staining based flow cytometry analysis (reference value: 84.91%); type: functional; conditions: read-out: Activity
Huh-7 [18] = assay: Induction of apoptosis in human Huh-7 cells assessed as early apoptotic cells at 1 uM incubated for 48 hrs by annexin V-FITC/propidium iodide staining based flow cytometry analysis (reference value: 4.59%); type: functional
[19] = target: Platelet-derived growth factor receptor alpha (Homo sapiens) (UniProt P16234); assay: Inhibition of PDGFRalpha (unknown origin) at 1 uM relative to control
Huh-7 [20] = assay: Induction of apoptosis in human Huh-7 cells assessed as viable cells at 0.1 uM incubated for 48 hrs by annexin V-FITC/propidium iodide staining based flow cytometry analysis (reference value: 84.91%); type: functional; conditions: read-out: Activity
Hep 3B2 [21] = assay: Effect on FGFR4 level in human Hep3B cells at 0.25 to 1 uM incubated for 48 hrs by Western blot analysis; type: functional, cell-based; conditions: dose 0.25-1 µM
Huh-7 [22] = assay: Antitumor activity against human Huh-7 cells xenografted in nude mouse assessed as tumor growth inhibition at 25 mg/kg, ip administered for 15 days; type: functional; conditions: Huh-7, 360 h, time 15 day, read-out: TGI
[23] = Toxicity in male nude mouse implanted with human Huh-7 cells assessed as kidney damage at 12.5 to 50 mg/kg, ip administered for 15 days; type: organism-based; conditions: in vivo, 360 h, dose 12.5-50 mg/kg, time 15 day
[24] = Clearance in BALB/c male mouse at 1 mg/kg, iv measured upto 24 hrs by LC-MS/MS analysis; type: ADME, organism-based; conditions: in vivo
[25] = Toxicity in male nude mouse implanted with human Huh-7 cells assessed as heart damage at 12.5 to 50 mg/kg, ip administered for 15 days; type: organism-based; conditions: in vivo, 360 h, dose 12.5-50 mg/kg, time 15 day
Huh-7 [26] = assay: Antiproliferative activity against human Huh-7 cells assessed as cell viability at […] pre-incubated with compound for 12 hrs followed by compound washout and measured after 4 days; type: functional, cell-based; conditions: dose 1.6 µM
[27] = MRT (0 to t) in BALB/c male mouse at 10 mg/kg, po measured upto 24 hrs by LC-MS/MS analysis; type: ADME, organism-based; conditions: in vivo
Hep 3B2 [28] = assay: cells; conditions: Homo sapiens, Hep3B, 72 h
Description: Antiproliferative activity against human Hep3B cells assessed as inhibition of cell proliferation incubated for 72 hrs by MTT assay

[29] = GSH reactivity in potassium phosphate buffer at pH 7.4 assessed as half life at 1 uM measured at 2 to 1440 mins by LC-MS/MS analysis; type: physicochemical; conditions: potassium phosphate buffer with GSH, time 2-1440 min
[30] = target: Tyrosine-protein kinase ABL2 (Homo sapiens) (UniProt P42684); assay: Inhibition of ABL2 (unknown origin) at 1 uM relative to control
MDA-MB-231 = assay: cells; conditions: Homo sapiens, MDA-MB-231, 72 h
Description: Antiproliferative activity against human MDA-MB-231 cells assessed as inhibition of cell proliferation incubated for 72 hrs by MTT assay

[31] = Oral bioavailability in BALB/c male mouse at 10 mg/kg measured upto 24 hrs by LC-MS/MS analysis; type: ADME, organism-based; conditions: in vivo
[32] = Half life in BALB/c male mouse at 10 mg/kg, po measured upto 24 hrs by LC-MS/MS analysis; type: ADME, organism-based; conditions: in vivo
Huh-7 [33] = assay: Induction of apoptosis in human Huh-7 cells assessed as early apoptotic cells at 0.5 uM incubated for 48 hrs by annexin V-FITC/propidium iodide staining based flow cytometry analysis (reference value: 4.59%); type: functional
Hep 3B2 [34] = assay: Induction of apoptosis in human Hep3B cells assessed as viable cells at 0.25 uM incubated for 48 hrs by annexin V-FITC/propidium iodide staining based flow cytometry analysis (reference value: 84.91%); type: functional; conditions: read-out: Activity
[35] = Toxicity in male nude mouse implanted with human Huh-7 cells assessed as body weight loss at 12.5 to 50 mg/kg, ip administered for 15 days; type: organism-based; conditions: in vivo, 360 h, dose 12.5-50 mg/kg, time 15 day

Tyrosine-protein kinase ABL2 (Homo sapiens), sequence (P42684 whole entry): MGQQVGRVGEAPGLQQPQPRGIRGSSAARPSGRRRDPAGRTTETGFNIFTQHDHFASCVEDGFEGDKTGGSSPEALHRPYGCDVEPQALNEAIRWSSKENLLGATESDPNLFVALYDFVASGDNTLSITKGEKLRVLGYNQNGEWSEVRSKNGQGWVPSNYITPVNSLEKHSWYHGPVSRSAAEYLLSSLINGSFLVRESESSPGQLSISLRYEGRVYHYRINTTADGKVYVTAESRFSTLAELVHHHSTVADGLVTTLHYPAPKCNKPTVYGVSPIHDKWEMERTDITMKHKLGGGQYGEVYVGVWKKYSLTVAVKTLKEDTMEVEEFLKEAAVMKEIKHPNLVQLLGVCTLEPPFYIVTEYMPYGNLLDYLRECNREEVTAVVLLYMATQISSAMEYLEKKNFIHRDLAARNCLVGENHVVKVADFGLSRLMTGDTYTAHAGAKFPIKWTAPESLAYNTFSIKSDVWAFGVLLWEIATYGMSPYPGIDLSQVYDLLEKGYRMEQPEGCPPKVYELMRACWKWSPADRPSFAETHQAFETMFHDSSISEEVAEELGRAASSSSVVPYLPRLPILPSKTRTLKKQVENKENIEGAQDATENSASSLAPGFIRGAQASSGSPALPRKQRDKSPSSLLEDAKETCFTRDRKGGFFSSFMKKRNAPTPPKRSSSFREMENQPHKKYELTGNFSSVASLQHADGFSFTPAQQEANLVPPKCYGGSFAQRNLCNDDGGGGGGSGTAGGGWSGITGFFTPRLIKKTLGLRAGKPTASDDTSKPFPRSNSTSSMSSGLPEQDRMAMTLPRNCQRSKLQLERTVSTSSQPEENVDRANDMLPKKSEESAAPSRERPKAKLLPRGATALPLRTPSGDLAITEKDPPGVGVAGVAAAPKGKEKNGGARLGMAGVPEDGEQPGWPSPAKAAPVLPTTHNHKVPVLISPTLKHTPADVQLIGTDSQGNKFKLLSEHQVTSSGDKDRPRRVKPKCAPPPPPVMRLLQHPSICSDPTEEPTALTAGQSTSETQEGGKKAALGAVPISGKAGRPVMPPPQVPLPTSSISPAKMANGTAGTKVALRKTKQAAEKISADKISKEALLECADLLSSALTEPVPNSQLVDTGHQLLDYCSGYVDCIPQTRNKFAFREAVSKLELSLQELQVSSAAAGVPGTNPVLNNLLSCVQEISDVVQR
Platelet-derived growth factor receptor alpha (Homo sapiens), sequence (P16234 whole entry): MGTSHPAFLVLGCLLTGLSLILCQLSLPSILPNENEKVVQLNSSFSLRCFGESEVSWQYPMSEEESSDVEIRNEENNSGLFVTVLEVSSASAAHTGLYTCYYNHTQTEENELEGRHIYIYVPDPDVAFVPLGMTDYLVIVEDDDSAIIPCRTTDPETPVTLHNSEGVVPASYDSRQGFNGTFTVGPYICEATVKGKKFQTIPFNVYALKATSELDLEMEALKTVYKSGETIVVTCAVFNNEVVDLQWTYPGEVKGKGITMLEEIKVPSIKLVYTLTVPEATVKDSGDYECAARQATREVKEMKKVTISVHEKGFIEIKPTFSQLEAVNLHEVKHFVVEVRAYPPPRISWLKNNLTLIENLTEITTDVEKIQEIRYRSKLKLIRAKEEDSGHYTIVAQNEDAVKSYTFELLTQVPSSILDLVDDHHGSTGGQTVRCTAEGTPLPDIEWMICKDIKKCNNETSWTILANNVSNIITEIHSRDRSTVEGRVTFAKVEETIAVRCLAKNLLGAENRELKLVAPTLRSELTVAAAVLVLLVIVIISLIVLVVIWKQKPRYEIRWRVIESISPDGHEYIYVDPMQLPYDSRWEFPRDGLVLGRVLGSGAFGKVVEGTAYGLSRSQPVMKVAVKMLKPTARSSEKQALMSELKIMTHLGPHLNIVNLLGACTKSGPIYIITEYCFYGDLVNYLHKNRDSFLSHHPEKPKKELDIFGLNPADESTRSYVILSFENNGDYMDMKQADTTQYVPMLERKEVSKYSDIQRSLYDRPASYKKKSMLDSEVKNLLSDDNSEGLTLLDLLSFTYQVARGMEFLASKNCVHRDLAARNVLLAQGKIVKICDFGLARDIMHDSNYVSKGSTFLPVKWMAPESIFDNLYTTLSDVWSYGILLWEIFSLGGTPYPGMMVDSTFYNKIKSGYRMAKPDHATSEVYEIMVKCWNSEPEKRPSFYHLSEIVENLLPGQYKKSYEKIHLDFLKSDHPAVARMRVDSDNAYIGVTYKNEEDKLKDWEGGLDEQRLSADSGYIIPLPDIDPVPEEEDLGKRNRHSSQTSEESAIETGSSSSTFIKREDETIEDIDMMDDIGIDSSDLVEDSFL

For `C=CC(=O)Nc1cccc(C)c1Nc1ncc(C#Cc2cccc(C(=O)Nc3ccc(CN4CCN(C)CC4)c(C(F)(F)F)c3)c2)cn1`, the Activity (Huh-7 [1]) was 8.41%, the Activity [2] was “Non-toxic” and the Activity (Hep 3B2 [3]) was 5.13%. The Activity (Hep 3B2 [4]) was 18.41%, the Activity (Hep 3B2 [5]) was 9.17% and the inhibition (Hep3B) was “Dose-dependent-effect”. For the same compound, the Activity (Hep 3B2 [6]) was 9.61%, the Activity (Hep 3B2 [7]) was 5.73% and the Activity (Huh-7 [8]) was 5.12%. The IC50 (Huh-7 [9]) was 150 nM, the viability at 0.5 µM (Hep 3B2 [10]) was 68.9% and the Activity (Huh-7 [11]) was 3.69%. For the same compound, the Tmax [12] was 1 h, the Activity (Huh-7 [13]) was 25.23% and the viability at 0.5 µM (Huh-7 [14]) was 75.3%. The Cmax [15] was 91.3 ng/mL, the inhibition in vivo at 50 mg/kg (Huh-7 [16]) was 69.8% and the viability at 1 µM (Hep 3B2 [17]) was 63.2%. The Activity (Huh-7 [18]) was 2.12%, the inhibition [19] was under 70% and the viability at 0.1 µM (Huh-7 [20]) was 88.8%. For the same compound, the Activity (Hep 3B2 [21]) was “Active”, the inhibition in vivo at 25 mg/kg (Huh-7 [22]) was 50.3% and the Activity [23] was “Non-toxic”. For the same compound, the clearance [24] was 67.9 mL/min/kg, the Activity [25] was “Non-toxic” and the Activity (Huh-7 [26]) was “Active”. For the same compound, the MRT last at 24 h [27] was 2.65 h, the IC50 (Hep 3B2 [28]) was 70 nM and the half-life at 1 µM [29] was 1.35 h. The inhibition [30] was under 70%, the IC50 (MDA-MB-231) was 5600 nM and the bioavailability [31] was 17.8%. It also gave a half-life [32] of 1.4 h, an Activity (Huh-7 [33]) of 5.07% and a viability at 0.25 µM (Hep 3B2 [34]) of 80.8%. The Activity [35] was “Non-toxic”.
